Values of other authors as cited in US10105334B2, “Particle formulations of all-trans retinoic acid and transforming growth factor beta for the treatment of type 1 diabetes mellitus” (University of Pittsburgh—Of the Commonwealth System of …, priority 2014, dated 2018).

Settings: Tsang et al., Cytokine 7:389-97 (1995)

## TGFβ: growth factor and immunomodulatory cytokine
  ED50 (physiologically-active concentration): 0.04-0.2 ng/mL
